Experiment: Quantitative CV and rotating disk voltammetry with numerical fitting (Randles-Sevcik, Levich)
Type: physicochemical
Settings: for DO, diffusion coefficient for quinoxaline / DR, diffusion coefficient for the reduced species / α, transfer coefficient for the reduction (forward) reaction: 295 K; for number of electrons transferred, n: ± 95% confidence interval
Text: A set of quantitative experiments were designed to calculate the number of electrons transferred, diffusion coefficients, and transfer coefficients using the Randles-Sevcik equation for irreversible CVs (Eq. (E1)) and the Levich equation (Eq. (E2)). In Eq. (E1), ip is the peak current, n is the number of electrons transferred, α is the transfer coefficient, A is the electrode surface area, F is Faraday's constant, C is the reactant concentration, s is the scan rate, R is the universal gas constant, T is temperature, and D is the diffusion coefficient (e.g., see Compton et al. Understanding Voltammetry, 2nd ed., Imperial College Press, London, 2011). Additionally, in Eq. (E2), iL is the RDV limiting current, ω is the electrode rotation rate, and v is the kinematic viscosity (e.g., see Bard et al. Electrochemical Methods: Fundamentals and Applications, John Wiley & Sons, Danvers, 2001). Kinematic viscosities were determined from dynamic viscosities, which were interpolated from tables by Zaytsev and […] et al. Properties of Aqueous Solutions of Electrolytes, 1st ed., CRC Press, Boca Raton, 1992), and electrolyte densities, which were measured using a balance and known solution volume. All remaining variables are constants or were determined by the experimental design. Quantitative CV and RDV experiments were carried out in a water-jacketed three-electrode cell. Chilled water at a temperature of 295 K (22° C.) was continuously passed through the water jacket in order to maintain a constant temperature throughout the experiment. A rotating disk electrode with a 0.5 cm diameter glassy carbon electrode (0.196 cm^2) was used as a working electrode. A coiled Pt wire used as a counter electrode was housed in a glass compartment that was separated from the main chamber by a porous frit. Both chambers were filled with the same bulk electrolyte. The reference electrode was a double junction Ag/AgCl (10% KNO3), which had been calibrated against a commercially available reversible hydrogen electrode (BAS Inc.) in 1 M NaHCO3 solution by measuring OCV between the two electrodes. All cell components were purchased from Pine Instruments Co., including the rotator and motor used in RDV experiments. Cells were filled with 80 mL of solution, and the solution was bubbled with argon using a porous glass frit at a rate of 50 mL/min for 1 h before taking any electrochemical measurements. After 1 h, the argon gas bubbling stream was switched to an argon gas blanket above the solution. Three cycles of CV, with a stationary electrode, were recorded at each of the following scan rates: 5, 10, 20, 50, and 100 mV/s. Between CV and RDV experiments, the glassy carbon electrode was re-polished before beginning RDV experiments. […] Quantitative voltammetry experiments were performed in triplicate using freshly prepared solution and freshly polished glassy carbon electrodes for each trial. CV experiments were performed at five different scan rates, and RDV experiments were performed at five different rotation speeds for each electrolyte of interest. The aim of these experiments was to determine the number of electrons transferred during a quinoxaline redox reaction, the diffusion coefficients of quinoxaline and its reduced species in each electrolyte, and the transfer coefficients of the redox reactions. FIG. 5a-e and FIG. 6a-e display the third cycle of typical CV data at different scan rates and the second cathodic scan of typical RDV data at different rotation rates, respectively. In order to quantitatively determine the number of electrons transferred, a numerical fitting technique was employed. Among the irreversible Randles-Sevcik (Eq. (E1)) and Levich (Eq. (E2)) equations, there are four unknown variables: the number of electrons transferred, n, two diffusion coefficients, DO/DR, and the transfer coefficient, α. […]

[1] = 0.45M K2SO4/0.1M KOH, pH 12.9, n=2 fixed
[2] = 0.495M K2SO4/0.01M KOH, pH 11.8, n=2 fixed
[3] = 0.9M KCl/0.1M KOH, pH 12.9, n=2 fixed
[4] = 0.99M KCl/0.01M KOH, pH 11.8, n=2 fixed

c1ccc2nccnc2c1 [quinoxaline]
DO, diffusion coefficient for quinoxaline [1]: 7.3 ± 1.7 10^−6 cm^2/s | DR, diffusion coefficient for the reduced species [1]: 4.4 ± 0.4 10^−6 cm^2/s | α, transfer coefficient for the reduction (forward) reaction [1]: 0.60 ± 0.00 | number of electrons transferred, n (0.45M K2SO4/0.1M KOH, pH 12.9): 2.54 ± 0.43 | DO, diffusion coefficient for quinoxaline [2]: 6.4 ± 0.7 10^−6 cm^2/s | DR, diffusion coefficient for the reduced species [2]: 4.8 ± 1.0 10^−6 cm^2/s | α, transfer coefficient for the reduction (forward) reaction [2]: 0.59 ± 0.00 | number of electrons transferred, n (0.495M K2SO4/0.01M KOH, pH 11.8): 2.26 ± 0.33 | DO, diffusion coefficient for quinoxaline [3]: 6.7 ± 0.4 10^−6 cm^2/s | DR, diffusion coefficient for the reduced species [3]: 5.9 ± 1.0 10^−6 cm^2/s | α, transfer coefficient for the reduction (forward) reaction [3]: 0.62 ± 0.02 | number of electrons transferred, n (0.9M KCl/0.1M KOH, pH 12.9): 2.90 ± 0.03 | DO, diffusion coefficient for quinoxaline [4]: 6.0 ± 0.6 10^−6 cm^2/s | DR, diffusion coefficient for the reduced species [4]: 4.9 ± 2.2 10^−6 cm^2/s | α, transfer coefficient for the reduction (forward) reaction [4]: 0.59 ± 0.04 | number of electrons transferred, n (0.99M KCl/0.01M KOH, pH 11.8): 1.89 ± 0.21 | DO, diffusion coefficient for quinoxaline (1M KOH, pH 13.7, n=2 fixed): 5.8 ± 0.9 10^−6 cm^2/s | DR, diffusion coefficient for the reduced species (1M KOH, pH 13.7, n=2 fixed): 4.0 ± 1.7 10^−6 cm^2/s | α, transfer coefficient for the reduction (forward) reaction (1M KOH, pH 13.7, n=2 fixed): 0.60 ± 0.05 | number of electrons transferred, n (1M KOH, pH 13.7): 2.34 ± 0.72 | diffusion coefficient of quinoxaline relative to the reduced species (in each electrolyte of Table E3): 1.1-1.7 × | mean calculated value for n (navg) (mean over the electrolytes in Table E2): 2.34 | transfer coefficient α for the forward reaction (overall, n=2 fixed): ≈ 0.6 | number of electrons transferred, n, rounded to nearest integer (rounded from navg): 2 | theoretical capacity (two-electron transfer process): 410 mAh/g

— patent US10658848B2, “Materials for use with aqueous redox flow batteries and related methods and systems” (Massachusetts Institute of Technology, priority 2014, dated 2020)
